Measurements as given in patent US9402820B2, “Use of pyruvate or succinate to enhance the efficacy of a hypoxia activated prodrug for the treatment of tumors” (THE UNITED STATES OF AMERICA AS REPRESENTED BY THE …, priority 2011, dated 2016).

Columns and labels:
[1] = tested on: HT29 (human colon cancer) tumors; experiment: HT29 tumor growth with TH-302 alone or in combination with pyruvate; type: in vivo; conditions: TH-302 100 mg/kg/day i.p., pyruvate 1.15 mmol/kg/day i.v. 30 min before, daily for 3 days
Procedure: (§1) Mouse legs bearing tumors were prepared by subcutaneously injecting 5×10^5 SCCVII (mouse squamous cell carcinoma) cells or 1×10^6 HT29 (human colon cancer) cells to the hind leg of C3H or athymic nude mice, respectively. When tumor size became 400-500 mm^3, treatments were initiated. Mice were treated daily for 3 days with hypoxia-activated prodrug TH-302 (100 mg/kg/day, i.p.) alone, pyruvate (1.15 mmol/kg/day, i.v.) alone, or TH-302 injection 30 min. after pyruvate injection. Treatments were started on day 7 (SCCVII; FIG. 6A) or day 8 (HT29; FIG. 6B). […] Tumor growth (volume/size in mm^3) was measured daily by caliper.

[2] = tested on: SCCVII (mouse squamous cell carcinoma) tumors; experiment: SCCVII tumor growth with TH-302 alone, pyruvate alone or in combination; type: in vivo; conditions: daily for 3 days
Procedure: as §1

[3] = tested on: SCCVII solid tumors; experiment: EPR imaging (EPRI) of tumor pO2 after i.v. pyruvate in SCC tumor-bearing mice; type: in vivo, mouse; conditions: for Median tumor pO2 value: before injection 11.8±1.3; for Percentage of hypoxic region (pO2<10 mmHg) in the tumors: before injection 39.7±9.8
Procedure: All animal experiments were carried out in compliance with the Guide for the care and use of laboratory animal resources (National Research Council, 1996) and approved by the National Cancer Institute Animal Care and Use Committee. Female C3H/Hen mice were supplied by the Frederick Cancer Research Center, Animal Production (Frederick, Md.). SCCVII solid tumors were formed by injecting 5×10^5 SCC cells subcutaneously into the right hind leg of C3H mice. Body weight measured before the experiments was 21-27 g. In EPRI and MRI measurements, mice were anesthetized by isoflurane (4% for induction and 2% for maintaining anesthesia) in medical air (750 mL/min) and positioned prone with their tumor-bearing legs placed inside the resonator. During the measurements, the breathing rate of the mice was monitored with a pressure transducer (SA Instruments Inc.) and maintained at 60±10 breaths per minute. Core body temperature was also monitored with a non-magnetic rectal temperature probe (FISO) and maintained at 37±1° C. with a flow of warm air. For administration of TAM and [1-^13C]pyruvate solution, a 30-gauge needle was cannulated into the tail vein and extended using polyethylene tubing (PE-10).
Technical details of the EPR scanner operating at 300 MHz, data acquisition based on the single-point imaging (SPI) modality, image reconstruction, and the oxygen mapping procedure were described previously (Matsumoto et al., Magn Reson Med, 55:1157-1163, 2006; and Matsumoto et al., J Clin Invest, 118:1965-1973, 2008). Isotonic [1-^13C]pyruvate solution (pH 7.4) was prepared by dissolving 30 μL of [1-^13C]pyruvic acid in 4.5 mL of alkaline solution containing 100 mg/L EDTA. After the mouse was placed in the resonator, TAM (OX063, GE Healthcare) was injected intravenously through the cannula placed in the tail vein. TAM was given as a 1.125 mmol/kg bolus followed by 0.04 mmol/kg/min continuous injection. After acquiring the first EPR data set, 1.15 mmol/kg bolus (300 μL of 96 mM) [1-^13C]pyruvate solution was injected intravenously through the cannula. EPRI measurements were carried out 30 minutes and 1 hour after [1-^13C]pyruvate injection. Then, the mouse was released. The mouse was anesthetized and canulated again, 1.125 mmol/kg TAM was injected to the mouse, and EPRI measurement was carried out 5 hours after the [1-^13C]pyruvate injection.
EPR signals were collected following the RF excitation pulses (60 ns, 80 W, 70° flip angle) using an analog digital converter (200 Msamples/s). EPR measurements were started 3 minutes after TAM injection, and it took 9 minutes to obtain a data set for a 3D image. The repetition time (TR) was 6.0 μs. The FIDs (free induction decays) were collected under a nested looping of the x, y, z gradients and each time point in the FID underwent phase modulation enabling 3D spatial encoding. In order to get reproducible values of T2* and to retain a more or less uniform image resolution, a set of 3 gradients was used, and data for corresponding images were collected in an interleaved fashion (Matsumoto et al., Magn Reson Med, 55:1157-1163, 2006). If the power spectrum of the pulse is uniform throughout the k-space for all the gradients used, the spatial resolution is simply defined by FOV (field of view) and the number of k-samples (elements in k-space).
Anatomical images of the tumor-bearing leg were obtained using 7 T MRI after the EPRI measurements. […] An identical parallel coil resonator (17 mm inner diameter and 25 mm long) with Q switch was used for both EPRI and MRI operating at 300 MHz (Matsumoto et al., J Clin Invest, 118:1965-1973, 2008).
MRI scans were conducted using a 7 T scanner controlled with ParaVision 5.0 (Bruker BioSpin MRI GmbH). […]

[4] = tested on: SCCVII solid tumors; experiment: Immunohistochemical analysis with hypoxia marker pimonidazole in SCC tumors; type: in vivo, mouse; conditions: control mice 21.1±1.4, n=5
Procedure: A hypoxia marker, pimonidazole, was given to tumor-bearing mice intravenously 30 minutes before excising tumors. The mice were euthanized, and tumor tissues were removed from mice. The tumor tissues were fixed with 4% paraformaldehyde and frozen using ultracold ethanol. The frozen tumors were sectioned to 10 μm thick using a cryostat, and the sections were thaw-mounted on glass slides. After blocking non-specific binding sites with Protein Block Serum-Free reagent (Dako North America Inc., Carpinteria, Calif.), the slides were covered by rabbit anti-pimonidazole antisera (Natural Pharmacia International, Inc., Burlington, Mass.; 1:250) overnight at 4° C. The sections were incubated with Alexa Fluor 555 anti-rabbit secondary antibody (Invitrogen, Carlsbad, Calif.; 1:500). Then they were mounted on Prolong Gold antifade reagent with DAPI (Invitrogen). Fluorescence microscopic observation was performed using an Axiovert 200 inverted fluorescent microscope (Carl Zeiss), and images of tissues were captured using Image-Pro Plus Ver. 4.0 imaging software. The pimonidazole positive area was quantified using Image J software.

[5] = tested on: SCC tumor; experiment: Tumor growth after X-irradiation (12 Gy) with [1-13C]pyruvate injection; type: in vivo, mouse; conditions: X-irradiation 12 Gy 30 minutes after [1-13C]pyruvate injection; X-irradiation without pyruvate 6-7 days
Excerpt: Mice were fixed in the specially designed jig for X-irradiation, by which mice were restricted from moving without anesthesia. X-irradiation (12 Gy) was delivered to tumor-bearing leg 6 days after SCC tumor implantation using a XRAD-320 (Precision X-ray Inc.).
Hypoxia is a critical factor that determines tumor resistance to radiotherapy and some kinds of chemotherapy. Although the pyruvate-induced hypoxia is transient, the decrease in oxygen concentration may limit the efficacy of cancer therapy, if the cancer treatments are provided immediately after MRI with hyperpolarized [1-^13C]pyruvate. To elucidate the effect of exogenously injected pyruvate on radiotherapy, tumor growth was monitored after X-irradiation with and without [1-^13C]pyruvate injection (FIG. 4). X-irradiation (12 Gy) without pyruvate administration suppressed the tumor growth for 6-7 days compared with non-treated control group which received neither X-irradiation nor pyruvate administration. […] Secondary mechanisms such as activation of hypoxia inducible transcription factor-1 signaling during the pyruvate-induced transient hypoxia might partially contribute to the long lasting effect of pyruvate on radiotherapy in addition to the direct effect of oxygen concentration at the time of radiation. […]

[6] = SCCVII, TH-302 100 mg/kg/day i.p., pyruvate 1.15 mmol/kg/day i.v. 30 min before

| SMILES | Period of time until tumor becomes 3 times original tumor size [1] | Period of time until tumor becomes 4 times original tumor size [1] | Period of time until tumor becomes 2 times original tumor size [2, 6] | Period of time until tumor becomes 3 times original tumor size [2, 6] | effect on SCCVII tumor growth ([2]; treatment starting 7 days post-tumor implantation) | median pO2 value in tumor ([3]; 1-2 hours after hyperpolarized [1-13C]pyruvate 1.15 mmol/kg i.v. bolus, control tumor group 11.7±0.7, mean±SEM, n=4) | hypoxic fraction (pixels with pO2<10 mm Hg) ([3]; 1-2 hours after hyperpolarized [1-13C]pyruvate 1.15 mmol/kg i.v., control tumors 37.1±5.6, mean±SEM, n=4) | Median tumor pO2 value ([3]; 30 minutes after [1-13C]pyruvate 1.15 mmol/kg i.v., n=4) | decrease of tumor pO2 ([3]; 30 minutes after half dose (0.58 mmol/kg b. w.)) | Percentage of hypoxic region (pO2<10 mmHg) in the tumors ([3]; 30 minutes after pyruvate 1.15 mmol/kg i.v.) | Median tumor pO2 value ([3]; 1 hour after [1-13C]pyruvate 1.15 mmol/kg i.v., n=4) | Percentage of hypoxic region (pO2<10 mmHg) in the tumors ([3]; 1 hour after pyruvate 1.15 mmol/kg i.v.) | Median tumor pO2 value ([3]; 5 hours after [1-13C]pyruvate 1.15 mmol/kg i.v., n=4) | Percentage of hypoxic region (pO2<10 mmHg) in the tumors ([3]; 5 hours after pyruvate 1.15 mmol/kg i.v.) | Pimonidazole positive area in tumors ([4]; 1 hour after [1-13C]pyruvate injection) | Pimonidazole positive area in tumors ([4]; 5 hours after [1-13C]pyruvate injection) | delay in tumor growth [5] |
| --- | --- | --- | --- | --- | --- | --- | --- | --- | --- | --- | --- | --- | --- | --- | --- | --- | --- |
| Cn1c(COP(=O)(NCCBr)NCCBr)cnc1[N+](=O)[O-] [TH-302] | 6.8 days | 8.4 days | 3.4 days | 5.4 days | minor or small effect |  |  |  |  |  |  |  |  |  |  |  |  |
| CC(=O)C(=O)O [pyruvate, 2-oxopropanoate] |  |  |  |  |  | 9.2±1.1 mmHg | 58.5±10.2% | 5.8±0.6 mmHg | 32% | 68.5±3.0% | 7.7±0.6 mmHg | 63.8±2.6% | 11.6±1.2 mmHg | 43.9±5.7% | 29.5±2.9% | 18.7±1.8% | 3 to 4 days |
